These results are taken from patent US9364450B2, “Clenbuterol for use in treatment of autism” (STOW[…]. CELESTYNA, priority 2011, dated 2016).

This series is described as follows: Administration of clenbuterol to patients with autistic symptoms (case examples). In kind it is in vivo, autistic children. Here is the method: A patient with autistic symptoms in the form of disorders of social integration, verbal and non-verbal communication, play disorders and concomitant anxiety, especially when changing environment, was administered clenbuterol at a dose of ¼ tablet containing 20 μg of clenbuterol once daily for a period of 3 months.
A patient with pediatric autism and cerebral palsy was administered the medication at a dose of ¼ of 20 μg tablet twice daily for a period of 12 months.
A patient with early pediatric autism, psychomotor hyperactivity syndrome and speech development delay was administered clenbuterol at a dose of ¼ of 20 μg tablet once daily for a period of 12 months.
It has been assumed that clenbuterol, modulating the brain neurotransmitter systems, affects also the endocrine and immunological system. As a result, alleviation of communication disorders and improved contact with surroundings is observed in autistic children.

SMILES strings stand for the structures.

`CC(C)(C)NCC(O)c1cc(Cl)c(N)c(Cl)c1` (racemic) [clenbuterol, (RS)-1-(4-amino-3,5-dichlorophenyl)-2-(tert-butylamino)ethanol]: the “Overall effects observed in autistic children” value (administration at very small doses to autistic children) is “Improved contact with surroundings, better concentration, improved ability to plan a specific task, improved understanding, calming, and reduced psychomotor anxiety were observed”. Also, for the setting “administration of effective amounts of clenbuterol or its pharmaceutically effective salt”, the “Effect on functional disorders related to ASD” value was “seems to practically alleviate functional disorders related to ASD”. The Adverse effects result (long-term administration of clenbuterol or its pharmaceutically acceptable salt) is on record as “no adverse effects associated with medications previously used in treatment of autism were observed”. Also, where the note is “patient with autistic symptoms, 1/4 tablet containing 20 μg once daily for 3 months”, the “Change in autistic symptoms after therapy (interest in environment, contact with surroundings, anxiety)” value is “increased interest in the environment was observed; the child's contact with surroundings improved and its anxiety symptoms decreased”. For the same compound, the “Change in autistic symptoms after treatment (speech expression, psychomotor anxiety, grimacing)” value (patient with early pediatric autism, psychomotor hyperactivity syndrome and speech development delay, 1/4 of 20 μg tablet once daily for 12 months) is “Improvement in speech expression was achieved as well as reduction of psychomotor anxiety and grimacing”. Moreover, for the setting “patient with pediatric autism and cerebral palsy, 1/4 of 20 μg tablet twice daily for 12 months”, the “Change in autistic symptoms after treatment (understanding, concentration, attention, speech)” value was “improvement with respect to understanding, concentration, attention, and speech”.
